Patent publication US20250082664A1, “NUCLEOSIDE FORMULATION” (PHION THERAPEUTICS LTD, priority 2021, published 2025)

Experiments:
[1] = Ioka T, et al. 2013; cited from earlier work
BxPC-3 cells = assay: Cell cycle analysis (propidium iodide, FACS); format: cell-based; details: 48 hours following treatment, 2 μM (1 μg) for 5 h, manual formulations
Procedure: 1.5×10^5 BxPC-3 cells were plated in 6-well plates (Nunc, UK) and left to adhere for 24 h. Cells were transferred to serum free media for 24-h, to ensure synchronisation of cells. Subsequently, cells were incubated with RALA/dFdCTP nanoparticles at a concentration of 2 μM (1 μg) for 5 h before removal of treatment media and the addition of fresh complete media. 48 h following treatment, cells were trypsinsed and fixed in ice-cold 70% ethanol for 1 hour at 4° C. Cells were washed twice in Phosphate Buffered Saline (PBS) for 5 min, before resuspension in 500 μL PBS and the addition of 50 μL of 100 μg/ml RNase (Invitrogen, UK). 10 minutes prior to running samples on fluorescence-activated cell sorting (FACS), 10 μl of a 100 μg/ml stock of propidium iodide (PI) was added. Controls include: untreated; dCTP (negative control); RALA/dCTP (RALA control); dFdCTP (drug control); and gemcitabine (comparator control).
A cell cycle analysis following treatment with RALA/dFdCTP was undertaken. If dFdCTP had been successfully delivered to cells, it would be incorporated during DNA polymerase, preventing DNA chain elongation. This would ultimately prevent cells from actively proliferating. This means that during cell cycling, the cycle will be arrested at the S-phase. Therefore, if there are a higher percentage of the cells in the (G0/G1+−S) phases than compared to the G2 phase, it is an indicator that dFdCTP has affected the cell cycle.

red blood cell (RBC) = assay: Haemolysis assay; format: cell-based; details: ovine RBC, equivalent of 10-30 μg dFdCTP, 1 h at 37° C., isotonic trehalose solution
Procedure: Defibrinated ovine whole blood (5 ml, TCS Biosciences Ltd, UK) was centrifuged at 500 g in citrate-phosphate buffer (15 ml, 0.1 M citric acid, C6HsO7, and 0.2 M disodium hydrogen phosphate, Na2HPO4) for 20 min to separate erythrocytes. The erythrocytes were subsequently washed three times with 20 mL of citrate-phosphate buffer by centrifugation and re-suspended in citrate-phosphate buffer solution at a concentration of 1×10^8 cells/mL. A Countess II automated cell counter (ThermoFisher, UK) was used to count erythrocytes by first diluting the erythrocyte suspension 1:10,000 in buffer. Subsequently, isotonic solutions (of osmolality in the range 290-310 mOsmol/kg) of RALA/dFdCTP (MR2.0) nanoparticles mixed with trehalose, or dFdCTP and trehalose was added to the erythrocyte suspension, with the equivalent of 10-30 μg dFdCTP added, and the solution incubated for 1 h at 37° C. Following incubation, the erythrocyte suspensions were centrifuged for 90 s at 400 g to form a cell pellet. Absorbance of the supernatant was measured via a Nanodrop 2000c UV-Vis spectrophotometer (Thermo Scientific, UK) at 541 nm. 1% Triton X-100 was used as a positive control representing 100% haemolysis; and citrate-phosphate buffer at pH 7.4 was used as a negative control.

SMILES	overall clinical response rate [1] [%]	Cells in (G0/G1 + S) Phase (BxPC-3 cells) [%]	haemolysis (red blood cell (RBC)) [%]
Nc1ccn([C@@H]2O[C@H](CO)[C@@H](O)C2(F)F)c(=O)n1 [Gemcitabine, 2′,2′-difluoro-2′-deoxycytidine]	6	60.2	
Nc1ccn([C@H]2C[C@H](O)[C@@H](COP(=O)(O)OP(=O)(O)OP(=O)(O)O)O2)c(=O)n1 [dCTP, deoxycytidine triphosphate]		49.9	
Nc1ccn([C@@H]2O[C@H](COP(=O)(O)OP(=O)(O)OP(=O)(O)O)[C@@H](O)C2(F)F)c(=O)n1 [dFdCTP, 2′,2′-difluorodeoxycytidine 5′-triphosphate]		66.4	> 20
